# Data published in the supplement of paper PMC10307832.
# What was measured:
# Assay in all cases: relative viability (nuclei count vs DMSO), 5 days (fraction); higher = more cells survive
# [1] = system: NCI-H1563
# Outline: (§1)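 After 5 days of treatment, lung cancer cells in 1536-well plates were fixed and stained in a single step (final 0.05% Triton X-100, 1% formaldehyde, 1 ug/ml Hoechst) and their nuclei counted on 4× images. Treatment had been applied by pin tool the day after seeding as one drug alone or as a fixed anchor-drug dose with five library-drug doses (not always all listed) in √10 steps. Relative viability is the nuclei count of treated wells divided by that of vehicle wells, and values are medians of duplicate plates.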
# [2] = system: NCI-H2228
# Outline: as §1
# [3] = system: LCLC-103H
# Outline: as §1
# [4] = system: NCI-H1650
# Outline: as §1
# [5] = system: PC-14
# Outline: as §1
# [6] = system: LCLC-97TM1
# Outline: as §1
# [7] = system: NCI-H460
# Outline: as §1
# [8] = system: 201T
# Outline: as §1
# [9] = system: NCI-H2347
# Outline: as §1
# [10] = system: SW 900
# Outline: as §1
# [11] = system: NCI-H23
# Outline: as §1
smiles,measurement,setting,value
COc1cc2nccc(Oc3ccc(NC(=O)Nc4cc(C)on4)c(Cl)c3)c2cc1OC [Tivozanib] + COc1cc2c(Oc3ccc(NC(=O)C4(C(=O)Nc5ccc(F)cc5)CC4)cc3F)ccnc2cc1OCCCN1CCOCC1 [Foretinib] (partner 0.25 µM),relative viability,[1]; first compound 0.05 µM,0.888
same,relative viability,[1]; first compound 0.1581 µM,0.847
same,relative viability,[1]; first compound 0.5 µM,0.867
same,relative viability,[2]; first compound 0.005 µM,0.887
same,relative viability,[2]; first compound 0.01581 µM,0.985
same,relative viability,[2]; first compound 0.05 µM,1.13
same,relative viability,[2]; first compound 0.1581 µM,0.82
same,relative viability,[2]; first compound 0.5 µM,0.928
same,relative viability,[3]; first compound 0.005 µM,0.905
same,relative viability,[3]; first compound 0.01581 µM,0.809
same,relative viability,[3]; first compound 0.05 µM,0.686
same,relative viability,[3]; first compound 0.1581 µM,0.849
same,relative viability,[3]; first compound 0.5 µM,0.881
same,relative viability,[4]; first compound 0.005 µM,0.955
same,relative viability,[4]; first compound 0.01581 µM,1.18
same,relative viability,[4]; first compound 0.05 µM,1.15
same,relative viability,[4]; first compound 0.1581 µM,0.935
same,relative viability,[4]; first compound 0.5 µM,1.08
same,relative viability,[5]; first compound 0.005 µM,0.911
same,relative viability,[5]; first compound 0.01581 µM,0.959
same,relative viability,[5]; first compound 0.05 µM,1.01
same,relative viability,[5]; first compound 0.1581 µM,1.09
same,relative viability,[5]; first compound 0.5 µM,0.904
same,relative viability,[6]; first compound 0.005 µM,0.904
same,relative viability,[6]; first compound 0.01581 µM,0.939
same,relative viability,[6]; first compound 0.05 µM,0.92
same,relative viability,[6]; first compound 0.1581 µM,0.982
same,relative viability,[6]; first compound 0.5 µM,0.928
same,relative viability,[7]; first compound 0.005 µM,0.983
same,relative viability,[7]; first compound 0.01581 µM,0.948
same,relative viability,[7]; first compound 0.05 µM,0.972
same,relative viability,[7]; first compound 0.1581 µM,1.01
same,relative viability,[7]; first compound 0.5 µM,0.96
same,relative viability,[8]; first compound 0.005 µM,1.14
same,relative viability,[8]; first compound 0.01581 µM,1.15
same,relative viability,[8]; first compound 0.05 µM,1.08
same,relative viability,[8]; first compound 0.1581 µM,1.08
same,relative viability,[8]; first compound 0.5 µM,1.16
same,relative viability,[9]; first compound 0.005 µM,0.905
same,relative viability,[9]; first compound 0.01581 µM,1.09
same,relative viability,[9]; first compound 0.05 µM,0.937
same,relative viability,[9]; first compound 0.5 µM,0.845
same,relative viability,[10]; first compound 0.005 µM,0.806
same,relative viability,[10]; first compound 0.01581 µM,0.884
same,relative viability,[10]; first compound 0.05 µM,0.733
same,relative viability,[10]; first compound 0.1581 µM,0.697
same,relative viability,[10]; first compound 0.5 µM,0.924
same,relative viability,[11]; first compound 0.005 µM,0.907
same,relative viability,[11]; first compound 0.01581 µM,1.04
same,relative viability,[11]; first compound 0.05 µM,1.04
same,relative viability,[11]; first compound 0.1581 µM,0.942
same,relative viability,[11]; first compound 0.5 µM,1.1
